In general, pEC50 refers to −log10 of the EC50, conventionally taken in molar units. Low values mean a large EC50, high ones a small EC50. In general, CC50 refers to the concentration giving 50% cytotoxicity. A low value points to harm at low concentration.

Drawing on US10160771B2, “Hepatitis C virus inhibitors and uses thereof in preparation of drugs” (priority 2014, dated 2018), this text covers EC50 and CC50 for 29 molecules.

pEC50: −log10 of the molar value. Where only a bound is given, the exact number is not on record here.

The subject of data set [1] is HCV genotype 1a (HCV-1a) replicon cells. The data set can be described thus: HCV genotype 1a replicon luciferase assay (EC50). Type of data set: cell-based, hepatitis C virus genotype 1a (H77 clone). The conditions noted are these: 3 days, luciferase (Bright-Glo). An outline of the steps: (§1)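 H77-derived 1a (K1691R, K2040R, S2204I) or Con1-derived 1b (E1202G, T1280I, K1846T) luciferase replicon cells, 8000/well, exposed 3 days at 37° C. to 6-point 5-fold dilutions (top 100, 10 or 1 nM; 0.5% DMSO), in duplicate. Bright-Glo luminescence read; EC50 from nonlinear fit of % inhibition.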
On the technique in general: A replicon is a self-replicating genome or part of one, used to study replication in cells.

For data set [2], the system named is HCV genotype 1b (HCV-1b) replicon cells. Put plainly: HCV genotype 1b replicon luciferase assay (EC50). To be noted: 3 days, luciferase (Bright-Glo). Type of data set: cell-based, hepatitis C virus genotype 1b (Con1 clone). An outline of the steps:
as §1

Data set [3] is described as follows: Cell Titer-fluor cell activity assay in HCV-1b replicon cells (CC50). The class given is cell-based. An outline of the steps: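 Con1 genotype 1b replicon cells (E1202G, T1280I, K1846T adaptive mutations), 8000 cells/well, exposed to 6-point 5-fold dilutions from 100, 10 or 1 nM top concentration in 0.5% DMSO, duplicate wells, 3 days at 37 °C. Viability read by Cell Titer-fluor (Ex 405/Em 515 nm) after 30 min; CC50 from nonlinear fit of inhibition %.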

Regarding `COC(=O)N[C@H](C(=O)N1CCC[C@H]1c1ncc(-c2ccc(-c3ccc(-c4cnc([C@H]5C6CCC(C6)[C@@H]5C(=O)NCc5ccc(N)cc5)[nH]4)cc3)cc2)[nH]1)C(C)C` (stereo partly drawn) [AA_210_A], the negative-log EC50 (pEC50) is 7.00 to 8.00 in data set [1] (Hepatitis C virus, 72 h) and 10.00 to 12.00 in data set [2] (Hepatitis C virus, 72 h). Moreover, in data set [3], the CC50 at 3 days was above 1 nM.
Take `COC(=O)N[C@H](C(=O)N1CCC[C@H]1c1ncc(-c2ccc(-c3ccc(-c4cnc(C5C6CCC(C6)[C@@H]5C(=O)NC(C)c5cnccn5)[nH]4)cc3)cc2)[nH]1)[C@@H](C)OC` (single isomer, unassigned) [AA_281_A]: the pEC50 in data set [1] is 9.00 to 10.00; in data set [2], 10.00 to 12.00. This molecule also registered a half-maximal cytotoxic concentration (CC50) at 3 days in data set [3] above 1 nM.
With `COC(=O)N[C@H](C(=O)N1CCCC[C@H]1c1ncc(-c2ccc(-c3ccc(-c4[nH]c([C@@H]5CCCN5C(=O)[C@@H](NC(=O)OC)C(C)OC)c5c4COC5)cc3)cc2)[nH]1)C(C)C` (stereo partly drawn) [AG_123], the pEC50 in data set [1] (Hepatitis C virus, 72 h) was 8.00 to 9.00; in data set [2] (Hepatitis C virus, 72 h), 10.00 to 12.00. In addition, the CC50 at 3 days in data set [3] was above 1 nM.
The like results for `COC(=O)N[C@H](C(=O)N1CCC[C@H]1c1ncc(-c2ccc(-c3ccc(-c4cnc([C@@H]5C6CCC(C6)[C@H]5C(=O)NCc5cccnc5OC)[nH]4)cc3)cc2)[nH]1)C(C)C` (stereo partly drawn) [AA_203_B] were, in that order, 8.00 to 9.00, 10.00 to 12.00 and above 1 nM.
The matching figures for `COC(=O)N[C@H](C(=O)N1CCC[C@H]1c1ncc(-c2ccc(-c3ccc(-c4cnc(C5C6CCC(C6)[C@@H]5C(=O)N(NC(=O)OC)C(C)C)[nH]4)cc3)cc2Cl)[nH]1)C(C)C` (stereo partly drawn) [AA_156]: 8.00 to 9.00, 10.00 to 12.00 and above 1 nM.
Turning to `COC(=O)N[C@H](C(=O)N1CCC[C@H]1c1ncc(-c2ccc(-c3ccc(-c4cnc(C5C6CCC(C6)[C@H]5C(=O)NC(C)c5cnccn5)[nH]4)cc3)cc2)[nH]1)[C@@H](C)OC` (stereo partly drawn) [AA_281_B], the pEC50 in data set [1] (Hepatitis C virus, 72 h) was 9.00 to 10.00; in data set [2] (Hepatitis C virus, 72 h), 10.00 to 12.00. The molecule further came in with a CC50 at 3 days in data set [3] above 1 nM.
The matching figures for `COC(=O)N[C@H](C(=O)N1CCC[C@H]1c1ncc(-c2ccc(-c3ccc(-c4cnc(C5C6CCC(C6)[C@H]5C(=O)NCc5ccccn5)[nH]4)cc3)cc2)[nH]1)[C@@H](C)OC` (stereo partly drawn) [AA_221_A]: 8.00 to 9.00, 10.00 to 12.00 and above 1 nM.
Turning to `COC(=O)N[C@H](C(=O)N1CCC[C@H]1c1ncc(-c2ccc(-c3ccc(-c4cnc(C5C6CCC(C6)[C@H]5C(=O)NCc5cccnc5C(F)(F)F)[nH]4)cc3)cc2)[nH]1)[C@@H](C)OC` (stereo partly drawn) [AA_255_B], the negative-log EC50 (pEC50) in data set [1] (Hepatitis C virus, 72 h) was 7.00 to 8.00; in data set [2] (Hepatitis C virus, 72 h) it was 10.00 to 12.00. Besides, the CC50 at 3 days in data set [3] is above 1 nM.
Regarding `COC(=O)N[C@H](C(=O)N1CCC[C@H]1c1ncc(-c2ccc(-c3ccc(-c4cnc(C5C6CCC(C6)[C@H]5C(=O)NCCc5ccncc5)[nH]4)cc3)cc2)[nH]1)[C@@H](C)OC` (stereo partly drawn) [AA_266_B], the pEC50 was 7.00 to 8.00 in data set [1] (Hepatitis C virus, 72 h) and 9.00 to 10.00 in data set [2] (Hepatitis C virus, 72 h). In addition, the cytotoxic concentration (CC50) at 3 days in data set [3] was above 1 nM.
The like results for `COC(=O)N[C@H](C(=O)N1CCC[C@H]1c1ncc(-c2ccc(-c3ccc(-c4cnc([C@H]5C6CCC(C6)[C@@H]5C(=O)NCc5ccccc5)[nH]4)cc3)cc2)[nH]1)C(C)C` (stereo partly drawn) [AA_207_A] were, in that order, 8.00 to 9.00, 10.00 to 12.00 and above 1 nM.
The like results for `COC(=O)N[C@H](C(=O)N1CCC[C@H]1c1ncc(-c2ccc(-c3ccc(-c4cnc([C@H]5C6CCC(C6)[C@@H]5C(=O)NCCc5ccccn5)[nH]4)cc3)cc2)[nH]1)C(C)C` (stereo partly drawn) [AA_202] were, in that order, 8.00 to 9.00, 10.00 to 12.00 and above 1 nM.
The like results for `COC(=O)N[C@H](C(=O)N1CCC[C@H]1c1[nH]c(-c2ccc(-c3ccc(-c4cnc([C@@H]5CCCN5C(=O)[C@@H](NC(=O)OC)[C@@H](C)OC)[nH]4)cc3)cc2)c2c1CCC2)C(C)C` [AG_066] were, in that order, 8.00 to 9.00, 10.00 to 12.00 and above 1 nM.
With `COC(=O)N[C@H](C(=O)N1CCC[C@H]1c1ncc(-c2ccc(-c3ccc(-c4cnc([C@H]5CCCC[C@@H]5C(=O)NCc5cccnc5)[nH]4)cc3)cc2)[nH]1)C(C)C` [AA_150_A], the pEC50 was 7.00 to 8.00 in data set [1] (Hepatitis C virus, 72 h) and 9.00 to 10.00 in data set [2] (Hepatitis C virus, 72 h). Further, the CC50 at 3 days in data set [3] was above 10 nM.
The like results for `COC(=O)N[C@H](C(=O)N1CCC[C@H]1c1ncc(-c2ccc(-c3ccc(-c4ccc([C@H]5CCCN5C(=O)N(NC(=O)OC)C(C)C)[nH]4)cc3)cc2)[nH]1)C(C)C` [AG_081_B] were, in that order, 7.00 to 8.00, 10.00 to 12.00 and above 1 nM.
The like results for `COC(=O)N[C@H](C(=O)N1CCC[C@H]1c1ncc(-c2ccc(-c3ccc(-c4cnc([C@H]5C6CCC(C6)[C@@H]5C(=O)NCc5cccnc5)[nH]4)cc3)cc2C)[nH]1)C(C)C` (stereo partly drawn) [AA_211_A] were, in that order, 8.00 to 9.00, 10.00 to 12.00 and above 1 nM.
Turning to `COC(=O)N[C@H](C(=O)N1CCC[C@H]1c1ncc(-c2ccc(-c3ccc(-c4cnc([C@H]5C6CCC(C6)[C@@H]5C(=O)NCc5cccnc5C)[nH]4)cc3)cc2)[nH]1)C(C)C` (stereo partly drawn) [AA_217], the pEC50 was 7.00 to 8.00 in data set [1] (Hepatitis C virus, 72 h) and 8.00 to 9.00 in data set [2] (Hepatitis C virus, 72 h). The CC50 at 3 days in data set [3] was above 1 nM.
The matching figures for `COC(=O)N[C@H](C(=O)N1CCC[C@H]1c1ncc(-c2ccc(-c3ccc(-c4[nH]c([C@H]5CCCN5C(=O)[C@@H](NC(=O)OC)[C@@H](C)OC)c5c4CCCC5)cc3)cc2)[nH]1)C(C)C` [AG_078_B]: 7.00 to 8.00, 9.00 to 10.00 and above 5 nM.
The like results for `COC(=O)N[C@H](C(=O)N1CCC[C@H]1c1ccc(-c2ccc(-c3ccc(-c4cnc([C@@H](NC(=O)[C@@H](NC(=O)OC)[C@@H](C)OC)C(C)C)[nH]4)cc3)cc2)[nH]1)C(C)C` [AG_102] were, in that order, 8.00 to 9.00, 10.00 to 12.00 and above 1 nM.
Take `COC(=O)N[C@H](C(=O)N1CCC[C@H]1c1ncc(-c2ccc(-c3ccc(-c4cnc(C5C6CCC(C6)[C@@H]5C(=O)NCc5cccnc5)[nH]4)cc3)cc2)[nH]1)[C@@H](C)OC` (stereo partly drawn) [AA_179_B]: the pEC50 was 8.00 to 9.00 in data set [1] (Hepatitis C virus, 72 h) and 10.00 to 12.00 in data set [2] (Hepatitis C virus, 72 h). In data set [3], the CC50 at 3 days is above 1 nM.
The like results for `COC(=O)N[C@H](C(=O)N1CCC[C@H]1c1ncc(-c2ccc(-c3ccc(-c4cnc(C5C6CCC(C6)[C@H]5C(=O)NCc5nccs5)[nH]4)cc3)cc2)[nH]1)[C@@H](C)OC` (stereo partly drawn) [AA_219_A] were, in that order, 8.00 to 9.00, 10.00 to 12.00 and above 1 nM.
The like results for `COC(=O)N[C@H](C(=O)N1CCC[C@H]1c1ncc(-c2ccc(-c3ccc(-c4cnc(C5C6CCC(C6)[C@@H]5C(=O)NCc5cccnc5O)[nH]4)cc3)cc2)[nH]1)[C@@H](C)OC` (stereo partly drawn) [AA_263_B] were, in that order, 8.00 to 9.00, 9.00 to 10.00 and above 1 nM.
The like results for `COC(=O)N[C@H](C(=O)N1CCC[C@H]1c1ncc(-c2ccc(-c3ccc(-c4cnc(C5[C@H]6CC[C@H](C6)[C@H]5C(=O)NCc5cccnc5F)[nH]4)cc3)cc2)[nH]1)C(C)C` (stereo partly drawn) [AA_224_ENDOA2] were, in that order, 9.00 to 10.00, 10.00 to 12.00 and above 1 nM.
Take `CNC(=O)[C@@H](NC(=O)[C@@H]1[C@@H]2CC[C@@H](C2)[C@H]1c1ncc(-c2ccc(-c3ccc(-c4cnc([C@@H]5CCCN5C(=O)[C@@H](NC(=O)OC)C(C)C)[nH]4)cc3)cc2)[nH]1)C(C)C` [AA_298_ENDOA2]: the pEC50 is 8.00 to 9.00 in data set [1] (Hepatitis C virus, 72 h) and 10.00 to 12.00 in data set [2] (Hepatitis C virus, 72 h). For the same molecule, the cytotoxic concentration (CC50) at 3 days in data set [3] was above 1 nM.
The matching figures for `COC(=O)N[C@H](C(=O)N1CCC[C@H]1c1ncc(-c2ccc(-c3ccc(-c4cnc([C@H]5C6CCC(C6)[C@@H]5C(=O)NC(CO)c5ccccn5)[nH]4)cc3)cc2)[nH]1)C(C)C` (stereo partly drawn) [AA_243_A]: 7.00 to 8.00, 10.00 to 12.00 and above 1 nM.
The like results for `COC(=O)N[C@H](C(=O)N1CCC[C@H]1c1ncc(-c2ccc(-c3ccc(-c4cnc(C5C6CCC(C6)[C@H]5C(=O)Nc5ccccc5)[nH]4)cc3)cc2)[nH]1)[C@@H](C)OC` (stereo partly drawn) [AA_246_B] were, in that order, 7.00 to 8.00, 9.00 to 10.00 and above 1 nM.
Consider `COC(=O)N[C@H](C(=O)N1CCC[C@H]1c1ncc(-c2ccc(-c3ccc(-c4cnc([C@H]5C6CCC(C6)[C@@H]5C(=O)NCc5cccnc5OC)[nH]4)cc3)cc2)[nH]1)C(C)C` (stereo partly drawn) [AA_203_A], for which the pEC50 in data set [1] (Hepatitis C virus, 72 h) is 8.00 to 9.00; in data set [2] (Hepatitis C virus, 72 h) it was 10.00 to 12.00. The CC50 at 3 days in data set [3] is above 1 nM.
The like results for `COC(=O)N[C@H](C(=O)N1CCC[C@H]1c1ncc(-c2ccc(-c3ccc(-c4cnc([C@@H]5C6CCC(C6)[C@H]5C(=O)NCCc5ccncc5)[nH]4)cc3)cc2)[nH]1)C(C)C` (stereo partly drawn) [AA_209_B] were, in that order, 7.00 to 8.00, 9.00 to 10.00 and above 1 nM.
For `COC(=O)N[C@H](C(=O)N1CCC[C@H]1c1ncc(-c2ccc(-c3ccc(-c4cnc(C5[C@H]6CC[C@H](C6)[C@H]5C(=O)N[C@@H](c5cccnc5)C(C)C)[nH]4)cc3)cc2)[nH]1)C(C)C` (stereo partly drawn) [AA_233_ENDOA2_B], the negative-log EC50 (pEC50) in data set [1] (Hepatitis C virus, 72 h) was 7.00 to 8.00; in data set [2] (Hepatitis C virus, 72 h) it was 10.00 to 12.00. Also, in data set [3], the CC50 at 3 days is above 1 nM.
The like results for `COC(=O)N[C@H](C(=O)NC1(c2ncc(-c3ccc(-c4ccc(-c5ccc([C@@H]6CCCN6C(=O)[C@@H](NC(=O)OC)[C@@H](C)OC)[nH]5)cc4)cc3)[nH]2)CC1)[C@@H](C)OC` [AG_106] were, in that order, 7.00 to 8.00, 10.00 to 12.00 and above 1 nM.
